Assay results: PMC6934184, “Selective DNA-PKcs inhibition extends the therapeutic index of localized radiotherapy and chemotherapy” (The Journal of Clinical Investigation, 2019)

Molecular target: T1, MAP3K8 (COT) (Homo sapiens, UniProt P41279)
T1 construct: purchased Thermo Fisher Scientific (Life Technologies) SelectScreen
Test: SelectScreen Z'LYTE
Type: biochemical
Settings: ATP 100 µM
Method in brief: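 NU5455 was profiled across the SelectScreen Broad panel of kinase activity and binding assays. Z'LYTE reactions such as CSF1R ran at apparent Km ATP, while the Adapta CAMK1 assay used ATP listed as 10. Values are given as percent.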

T1 sequence (P41279 whole entry): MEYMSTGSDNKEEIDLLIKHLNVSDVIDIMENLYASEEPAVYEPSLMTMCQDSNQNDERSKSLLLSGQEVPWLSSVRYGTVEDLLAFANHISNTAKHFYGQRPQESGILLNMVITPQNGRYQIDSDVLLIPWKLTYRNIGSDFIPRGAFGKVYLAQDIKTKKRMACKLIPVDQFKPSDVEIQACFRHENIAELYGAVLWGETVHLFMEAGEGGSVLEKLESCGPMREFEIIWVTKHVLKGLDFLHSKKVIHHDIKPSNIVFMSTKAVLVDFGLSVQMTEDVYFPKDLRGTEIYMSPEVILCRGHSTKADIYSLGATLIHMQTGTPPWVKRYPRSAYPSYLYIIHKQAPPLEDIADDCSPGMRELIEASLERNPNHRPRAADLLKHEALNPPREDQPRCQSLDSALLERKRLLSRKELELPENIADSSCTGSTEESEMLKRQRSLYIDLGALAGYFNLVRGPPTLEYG

CN(C(=O)CN1CCOCC1)c1ccc2sc3c(-c4cccc5c(=O)cc(N6CC7CCC(C6)O7)oc45)cccc3c2c1 [NU5455]
inhibition at 1 µM: 3.5%
